What all share (test): competitive isoTOP-ABPP
Format in all cases: binding

Assay [1] deals with T1, CNOT4 CCR4-NOT transcription complex subunit 4 (Homo sapiens, UniProt O95628).
T1 construct: isoTOP-ABPP experiments performed in cell lysates (in vitro); endogenous in cells; host or cells: MDA-MB-231 soluble lysate
T1 sequence (O95628 1-575): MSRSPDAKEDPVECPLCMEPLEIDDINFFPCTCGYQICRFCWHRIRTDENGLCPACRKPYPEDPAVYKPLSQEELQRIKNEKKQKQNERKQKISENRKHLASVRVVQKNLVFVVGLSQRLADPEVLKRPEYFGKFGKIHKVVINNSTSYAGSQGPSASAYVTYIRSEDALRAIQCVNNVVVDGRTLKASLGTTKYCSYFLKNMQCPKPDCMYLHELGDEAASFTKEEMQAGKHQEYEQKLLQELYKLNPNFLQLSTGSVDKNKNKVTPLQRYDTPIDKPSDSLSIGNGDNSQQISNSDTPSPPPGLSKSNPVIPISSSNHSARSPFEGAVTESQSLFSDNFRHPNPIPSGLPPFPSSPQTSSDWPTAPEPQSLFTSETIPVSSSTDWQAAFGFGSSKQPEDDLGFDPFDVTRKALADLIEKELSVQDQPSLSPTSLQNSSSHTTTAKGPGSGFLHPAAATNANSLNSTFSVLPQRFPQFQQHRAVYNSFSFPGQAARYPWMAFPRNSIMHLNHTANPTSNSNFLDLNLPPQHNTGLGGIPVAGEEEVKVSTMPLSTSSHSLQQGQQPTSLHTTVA
The settings on record: 50 uM, in vitro; for R value (DMSO/fragment) for probe 1 labeling: O95628_K134; for R value (DMSO/fragment) for probe 1 labeling / isoTOP-ABPP reactivity ratio at lysine O95628_K134: 231 sol. In outline:
(§1)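 Cell lysate treated in vitro with fragments (50 μM activated esters, 100 μM guanidinylating agents) or DMSO, labelled 1 h at ambient temperature with 0.1 mM STP-alkyne, CuAAC-tagged with light/heavy TEV tags, analysed by MS. R = DMSO/compound MS1 peak-area ratio; lysines with R≥4 called liganded.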

Assay [2] addresses T2, ERAP1 Endoplasmic reticulum aminopeptidase 1 (Homo sapiens, UniProt Q9NZ08).
T2 construct: endogenous in cells; host or cells: MDA-MB-231 lysate
The settings on record: for R value (DMSO/fragment) for probe 1 labeling: Q9NZ08_K685; for R value (DMSO/fragment) for probe 1 labeling / isoTOP-ABPP reactivity ratio at lysine Q9NZ08_K685: 231 sol. In outline: as §1

The target in assay [3] is T3, UCHL5 Ubiquitin carboxyl-terminal hydrolase isozyme L5 (Homo sapiens, UniProt Q9Y5K5).
T3 construct: endogenous in cells; host or cells: MDA-MB-231 (soluble fraction of lysate)
T3 sequence (Q9Y5K5 1-329): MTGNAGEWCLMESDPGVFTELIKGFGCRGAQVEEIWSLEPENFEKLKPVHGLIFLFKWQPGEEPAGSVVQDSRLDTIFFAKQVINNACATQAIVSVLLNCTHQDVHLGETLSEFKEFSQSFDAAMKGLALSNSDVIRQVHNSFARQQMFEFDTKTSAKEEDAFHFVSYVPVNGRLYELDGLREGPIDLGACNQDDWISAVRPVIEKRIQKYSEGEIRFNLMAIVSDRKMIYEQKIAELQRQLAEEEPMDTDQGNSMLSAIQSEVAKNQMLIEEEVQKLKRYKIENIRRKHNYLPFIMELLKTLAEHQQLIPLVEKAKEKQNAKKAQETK
The settings on record: for R value (DMSO/fragment) for probe 1 labeling: Q9Y5K5_K323; for isoTOP-ABPP ratio (R) at liganded lysine Q9Y5K5_K323: sol, 231. The method in brief:
as §1

Assay [4] has as its target T4, XRCC6 X-ray repair cross-complementing protein 6 (Homo sapiens, UniProt P12956).
T4 construct: isoTOP-ABPP experiments performed in cell lysates (in vitro); endogenous in cells; host or cells: soluble proteome of human cancer cell lines (MDA-MB-231; Ramos and Jurkat also prepared)
The settings on record: for R value (DMSO/fragment) for probe 1 labeling: P12956_K351; for R value (DMSO/fragment) for probe 1 labeling / isoTOP-ABPP reactivity ratio at lysine P12956_K351 / isoTOP-ABPP ratio (R) at liganded lysine P12956_K351: 50 uM, in vitro; for R value (DMSO/fragment) for probe 1 labeling / isoTOP-ABPP reactivity ratio at lysine P12956_K351: 231 sol; for isoTOP-ABPP ratio (R) at liganded lysine P12956_K351: sol, 231. In outline:
as §1

T4 sequence (P12956 2-609 limits assumed): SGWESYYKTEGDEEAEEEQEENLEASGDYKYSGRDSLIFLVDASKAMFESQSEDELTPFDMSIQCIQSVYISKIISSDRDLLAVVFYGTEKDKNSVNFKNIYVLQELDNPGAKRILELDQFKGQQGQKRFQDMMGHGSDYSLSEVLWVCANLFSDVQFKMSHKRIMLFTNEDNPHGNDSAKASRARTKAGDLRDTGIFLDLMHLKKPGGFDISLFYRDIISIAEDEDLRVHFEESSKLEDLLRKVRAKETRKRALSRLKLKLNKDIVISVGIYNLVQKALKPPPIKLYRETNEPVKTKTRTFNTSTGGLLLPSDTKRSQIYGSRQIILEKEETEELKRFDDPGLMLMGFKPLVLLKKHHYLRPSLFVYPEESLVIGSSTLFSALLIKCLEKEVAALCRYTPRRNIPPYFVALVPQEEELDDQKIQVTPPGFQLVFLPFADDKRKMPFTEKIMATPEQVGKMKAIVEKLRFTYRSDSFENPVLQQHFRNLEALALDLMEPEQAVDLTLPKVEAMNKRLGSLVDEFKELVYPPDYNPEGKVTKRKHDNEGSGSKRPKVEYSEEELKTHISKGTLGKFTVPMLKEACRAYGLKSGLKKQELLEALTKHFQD
T4 sequence (P13010 2-732 partner limits assumed): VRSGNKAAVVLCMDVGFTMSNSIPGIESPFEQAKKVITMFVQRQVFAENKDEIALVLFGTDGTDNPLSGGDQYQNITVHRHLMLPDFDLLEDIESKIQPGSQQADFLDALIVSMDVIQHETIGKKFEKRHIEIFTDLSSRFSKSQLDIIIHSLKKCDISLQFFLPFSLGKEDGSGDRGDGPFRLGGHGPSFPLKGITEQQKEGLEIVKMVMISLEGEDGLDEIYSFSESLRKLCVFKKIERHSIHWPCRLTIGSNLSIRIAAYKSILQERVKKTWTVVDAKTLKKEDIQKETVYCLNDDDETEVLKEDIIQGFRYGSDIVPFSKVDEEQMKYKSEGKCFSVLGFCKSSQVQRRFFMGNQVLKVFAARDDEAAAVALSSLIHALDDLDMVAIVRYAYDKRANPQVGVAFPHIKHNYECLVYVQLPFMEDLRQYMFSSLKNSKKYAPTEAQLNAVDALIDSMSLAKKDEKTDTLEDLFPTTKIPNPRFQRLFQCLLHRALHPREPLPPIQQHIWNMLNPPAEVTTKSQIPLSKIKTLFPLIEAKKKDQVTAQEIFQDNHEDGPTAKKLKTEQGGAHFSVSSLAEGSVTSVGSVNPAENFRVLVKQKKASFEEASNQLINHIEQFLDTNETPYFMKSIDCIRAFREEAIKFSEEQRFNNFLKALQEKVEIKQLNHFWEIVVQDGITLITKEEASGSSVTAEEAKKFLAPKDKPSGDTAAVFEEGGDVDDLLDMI
T2 sequence (Q9NZ08 whole entry): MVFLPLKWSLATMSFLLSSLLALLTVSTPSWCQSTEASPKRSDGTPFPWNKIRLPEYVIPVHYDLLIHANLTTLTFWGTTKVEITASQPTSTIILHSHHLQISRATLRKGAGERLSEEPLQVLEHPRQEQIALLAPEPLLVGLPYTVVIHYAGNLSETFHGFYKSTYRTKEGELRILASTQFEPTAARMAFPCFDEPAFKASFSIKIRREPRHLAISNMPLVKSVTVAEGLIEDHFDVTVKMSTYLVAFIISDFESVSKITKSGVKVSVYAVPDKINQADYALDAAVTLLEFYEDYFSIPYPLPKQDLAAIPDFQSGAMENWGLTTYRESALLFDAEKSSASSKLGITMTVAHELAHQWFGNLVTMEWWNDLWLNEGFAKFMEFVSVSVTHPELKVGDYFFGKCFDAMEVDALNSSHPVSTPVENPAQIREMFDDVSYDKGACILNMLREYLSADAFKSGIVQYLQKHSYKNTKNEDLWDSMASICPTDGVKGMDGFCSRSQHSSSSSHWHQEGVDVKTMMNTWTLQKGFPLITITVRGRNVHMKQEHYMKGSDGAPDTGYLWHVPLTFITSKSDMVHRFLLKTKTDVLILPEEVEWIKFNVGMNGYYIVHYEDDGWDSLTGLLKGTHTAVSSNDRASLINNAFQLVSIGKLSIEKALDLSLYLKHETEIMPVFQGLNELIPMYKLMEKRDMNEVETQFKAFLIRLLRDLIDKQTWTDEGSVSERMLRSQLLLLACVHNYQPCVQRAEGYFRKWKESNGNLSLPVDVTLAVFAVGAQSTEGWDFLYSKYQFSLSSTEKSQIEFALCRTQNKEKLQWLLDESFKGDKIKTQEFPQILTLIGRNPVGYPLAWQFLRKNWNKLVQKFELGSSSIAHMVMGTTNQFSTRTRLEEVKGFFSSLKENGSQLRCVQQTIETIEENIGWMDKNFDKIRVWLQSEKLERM

Take `O=C(CCc1cn(-c2ccccc2)nc1-c1ccccc1)Oc1c(F)c(F)c(F)c(F)c1F` [fragment 19, Pentafluorophenyl 3-(1,3-diphenyl-1H-pyrazol-4-yl)propanoate]: the “R value (DMSO/fragment) for probe 1 labeling” value (from here on “R value (DMSO/fragment)”) in assay [1] is 1.1; in assay [2] (50 uM, in vitro), 1.1; in assay [3] (50 uM, 231 sol, in vitro) it was 1.1; in assay [4] it was 1.7.

In the case of `O=C(Oc1c(F)c(F)c(F)c(F)c1F)C(c1ccccc1)c1ccccc1` [fragment 20, Pentafluorophenyl 2,2-diphenylacetate], the “R value (DMSO/fragment)” value in assay [1] is reported as 0.9; in assay [2] (50 uM, in vitro) it was 1.5; in assay [3] (50 uM, 231 sol, in vitro) it was 0.9; in assay [4], 2.3.

Turning to `O=C(Oc1c(F)c(F)c(F)c(F)c1F)c1cc(C(F)(F)F)cc(C(F)(F)F)c1` [fragment 21, Pentafluorophenyl 3,5-bis(trifluoromethyl)benzoate], the “R value (DMSO/fragment)” value in assay [1] stood at 1.2; in assay [2] (50 uM, in vitro), 1.4; in assay [3] (50 uM, 231 sol, in vitro), 1.0; in assay [4] it was 1.4.

For the molecule `Cn1cc(CC(=O)Oc2c(F)c(F)c(F)c(F)c2F)c2ccccc21` [fragment 22, Pentafluorophenyl 2-(1-methyl-1H-indol-3-yl)acetate], the “R value (DMSO/fragment)” value in assay [1] is 1.4; in assay [2] (50 uM, in vitro) it was 2.2; in assay [3] (50 uM, 231 sol, in vitro), 0.8; in assay [4] it was 3.6.

For the molecule `COc1cc(CCC(=O)Oc2c(F)c(F)c(F)c(F)c2F)cc(OC)c1OC` [fragment 23, Pentafluorophenyl 3-(3,4,5-trimethoxyphenyl)propanoate], the “R value (DMSO/fragment)” value in assay [1] stood at 1.2; in assay [2] (50 uM, in vitro), 1.7; in assay [4], 1.2.

On to `O=C(Oc1c(F)c(F)c(F)c(F)c1F)C1CCN(C(=O)OCc2ccccc2)CC1` [fragment 24, 1-Benzyl 4-(pentafluorophenyl) piperidine-1,4-dicarboxylate], for which, in assay [1], the “isoTOP-ABPP reactivity ratio at lysine O95628_K134” value turned out to be 1.0. Moreover, in assay [2] (50 uM, in vitro), the “isoTOP-ABPP reactivity ratio at lysine Q9NZ08_K685” value worked out at 1.6. The “isoTOP-ABPP reactivity ratio at lysine Q9Y5K5_K323” value in assay [3] (50 uM, 231 sol, in vitro) is listed as 0.8. The “isoTOP-ABPP reactivity ratio at lysine P12956_K351” value in assay [4] is 1.3.

Turning to `O=C(Oc1c(F)c(F)c(F)c(F)c1F)c1ccc2ccccc2n1` [fragment 25, Pentafluorophenyl quinoline-2-carboxylate], in assay [1], the “isoTOP-ABPP reactivity ratio at lysine O95628_K134” value was 1.8. In addition, the “isoTOP-ABPP reactivity ratio at lysine Q9NZ08_K685” value in assay [2] (50 uM, in vitro) stood at 1.9. Also, the “isoTOP-ABPP reactivity ratio at lysine P12956_K351” value in assay [4] stood at 1.6.

With `O=C(Oc1ccc([N+](=O)[O-])cc1[N+](=O)[O-])c1ccc2ccccc2n1` [fragment 35, 2,4-Dinitrophenyl quinoline-2-carboxylate], the “isoTOP-ABPP ratio (R) at liganded lysine O95628_K134” value in assay [1] (sol, 231) is reported as 1.3. For the same molecule, the “isoTOP-ABPP ratio (R) at liganded lysine Q9Y5K5_K323” value in assay [3] (50 uM, in vitro) is 1.0. The “isoTOP-ABPP ratio (R) at liganded lysine P12956_K351” value in assay [4] is listed as 1.5.

As to `O=C(CCc1coc2cc(F)ccc2c1=O)Oc1ccc([N+](=O)[O-])cc1[N+](=O)[O-]` [fragment 36, 2,4-Dinitrophenyl 3-(7-fluoro-4-oxo-4H-chromen-3-yl)propanoate], the “isoTOP-ABPP ratio (R) at liganded lysine Q9NZ08_K685” value in assay [2] (50 uM, in vitro, sol, 231) came out at 1.1. For the same molecule, the “isoTOP-ABPP ratio (R) at liganded lysine Q9Y5K5_K323” value in assay [3] (50 uM, in vitro) came to 0.8. Also, in assay [4], the “isoTOP-ABPP ratio (R) at liganded lysine P12956_K351” value is on record as 2.1.

Turning to `O=C(Oc1c(F)c(F)cc(F)c1F)c1cc(C(F)(F)F)cc(C(F)(F)F)c1` [fragment 48, 2,3,5,6-Tetrafluorophenyl 3,5-bis(trifluoromethyl)benzoate], in assay [2] (50 uM_231_sol_in vitro), the “isoTOP-ABPP ratio, lysine Q9NZ08_K685” value is listed as 1.5. In addition, the “isoTOP-ABPP ratio, lysine Q9Y5K5_K323” value in assay [3] (50 uM_231_sol_in vitro) stood at 0.9. For the same molecule, the “isoTOP-ABPP ratio, lysine P12956_K351” value in assay [4] (50 uM_231_sol_in vitro) amounted to 1.5.

For the origin of these results see patent publication US20210255193A1, “LYSINE REACTIVE PROBES AND USES THEREOF” (The Scripps Research Institute, priority 2017, published 2021).
